Source: patent US5795885A, “Method of inhibiting profileration of cells by administering an aminosterol compound” (priority 1995, dated 1998)
≈ marks a conversion by molar mass, not a printed value.

Legend:
[1] = system: PHA-stimulated human lymphocytes; experiment: inhibition of mitogen (PHA)-stimulated growth of human T-cells; type: cell-based; conditions: Homo sapiens, Lymphocyte, read-out: inhibition of PHA-stimulated human lymphocytes (% control); for inhibition at 10 µg/mL: 10 μg/ml
From the text: Results are tabulated below.

[2] = system: Human ovarian carcinoma SKOV3; experiment: growth inhibition in vitro (Baker et al.); type: cell-based
Protocol: (§1) As set forth in Table 7 below, all malignant tumors evaluated in tissue culture, endothelial cells and vascular smooth muscle cells were sensitive to inhibition. Thus, compound 1436 has application in the control of growth factor dependent proliferation of many types of tissue.
Using the assay described above, the anticancer effects of compound 1437 against several cancer lines was assessed.

fasting blood glucose = fasting blood glucose in mice; type: in vivo, Male CD-1 mice; conditions: intravenous
Protocol: To study the effect of steroid administrator or the NHE responsible for secretion of insulin, several of the aminosterols from shark liver were administered to fasting mice. Male CD-1 mice were assigned to one of four treatment groups. Whole blood glucose was tested using glucometer (Lifescan Glucometer II and One Touch test strips). Statistical analysis was via one-way analysis of variance (ANOVA) followed by subsequent Bonferonni's t-test.

P. aerug = experiment: antibiotic activity (MIC); type: cell-based
[3] = system: chick embryo vitelline capillaries; experiment: chick embryo vitelline capillary regression assay; type: in vivo; parameters: key to vitelline capillary regression: +: Vascular reactivity; 0: No vascular reactivity; +/-: Equivocal reactivity; conditions: for vitelline capillary regression: 60 minutes
Protocol: Using the chick embryo vitelline capillaries assay, compounds were tested for their ability to induce capillary regression. Each compound was applied in 0.1 ml of 15% Ficol 400 and PBS onto the embryo, and vascular regression was assessed after 60 minutes.
The 3-day chick embryo consists of an embryonic disc from which numerous vessels emerge and return, forming a "figure 8"-shaped structure--the embryo in the center with vascular loops extending outward over both poles. […] Following a lag period of around 15 minutes, the constriction of continuity between capillary and secondary vessels, generally on the "venous" side, was observed. Continued pulsatile blood flow progressed, resulting in a "swelling" of the blind tube, followed by a pinching off of the remaining connection and formation of an enclosed vascular sac resembling a "blood island." This process progressed until only the largest vessels remained intact.

human melanoma = human melanoma growth time course and cell death (Baker et al.); type: cell-based
[4] = system: stage 59-60 Xenopus tadpoles; conditions: for tadpole tail capillary occlusion: squalamine at 10 μg/ml
[5] = system: L1210 lymphoblastic leukemia; experiment: mouse model of L1210 leukemia; type: in vivo, C57B mice
B16 melanoma = B16 melanoma growth in C57B mice; type: in vivo, mouse
Protocol: The growth of B16 melanoma in C57B mice is dependent upon neovascularization.
Using the growth of B16 melanoma cells in C57B mice, a recognized model for the evaluation of inhibitors of angiogenesis on the growth of cancers, the effects of subcutaneous, intraperitoneal and oral administration of squalamine were evaluated.
Based on the idea that tumor growth involves both the clonal expansion of a malignant cell along with the development of a supporting vascular supply, a combination of compound 1436 with squalamine was tested to determine whether it would achieve a synergistic effect on solid tumor growth. This concept was evaluated in the B16 melanoma model.
Animals were implanted with B16 melanoma followed by treatment with compound 1436 or 1256 administered in a combined schedule or separately. […] Thus, a combination of these two compounds achieves a therapeutic benefit in tumors dependent on neovascularization that may prevent metastatic spread.

mouse IV PK study, HPLC = conditions: in vivo
Protocol: To assess clearance, a mouse IV PK study was performed for compound 319 and squalamine. The compound was administered i.v. and blood samples were taken every 10 minutes. The concentration of the administered steroid was determined by HPLC analysis.

NHE1β = conditions: cited from earlier work
[6] = system: Human colon carcinoma HT29; experiment: growth inhibition in vitro (Baker et al.); type: cell-based; conditions: 10 μg/ml
From the text: as §1

[7] = system: Human colon carcinoma SW948; experiment: growth inhibition in vitro (Baker et al.); type: cell-based; conditions: 10 μg/ml
From the text: as §1

[8] = system: Human coronary artery smooth muscle cells; experiment: growth inhibition in vitro (Baker et al.); type: cell-based; conditions: 10 μg/ml
From the text: as §1

Human melanoma WM 1617 = experiment: growth inhibition in vitro (Baker et al.); type: cell-based; conditions: 10 μg/ml
From the text: as §1

[9] = system: Human microvascular endothelial cells; experiment: growth inhibition in vitro (Baker et al.); type: cell-based; conditions: 10 μg/ml
From the text: as §1

Murine L1210 leukemia = experiment: growth inhibition in vitro (Baker et al.); type: cell-based; conditions: 10 μg/ml
From the text: as §1

[10] = system: bovine pulmonary endothelial cells; experiment: growth inhibition in vitro (Baker et al.); type: cell-based; conditions: 10 μg/ml
From the text: as §1

[11] = system: human umbilical venous endothelial cells; experiment: growth inhibition in vitro (Baker et al.); type: cell-based; conditions: 10 μg/ml
From the text: as §1

Lewis lung carcinoma = experiment: growth inhibition / cytotoxicity in vitro; type: cell-based; conditions: 10 μg/ml
From the text: as §1

Murine B16 melanoma = experiment: growth inhibition in vitro; type: cell-based; conditions: 10 μg/ml
From the text: as §1

[12] = system: human coronary artery smooth muscle; experiment: proliferation of human coronary artery smooth muscle in vitro; type: cell-based
From the text: Aminosterols of the invention may also have utility in inhibiting the growth factor mediated proliferation of smooth muscle within the artery. Following coronary angioplasty, reocclusion commonly occurs, secondary to reparative proliferation of the vascular smooth muscle within the wall of the surgically manipulated blood vessel. This process generally takes place over the course of 7-10 days. To evaluate whether an agent could prevent the growth factor mediated proliferation of smooth muscle within the artery, compound 1436 was evaluated in vitro for its effect on the proliferation of human coronary artery smooth muscle. Results for compound 1436 are shown in FIG. 13, and those for squalamine are shown in FIG. 14, with FIG. 15 being a composite logarithmic plot.

[13] = growth and weight gain in growing mice; type: in vivo, C57B mice
Protocol: Animals were dosed QTD (i.p.) starting on Day 1. […] Animals receiving 5 mg/kg QTD experienced about a 50% reduction in growth, compared to untreated controls, while animals receiving 1 mg/kg QTD were affected by about 10%. […] They appeared very much like hypophysectamized animals might appear.

arterial pressure = arterial pressure in the rat after i.v. administration; type: in vivo
Protocol: A 200-g rat was catheterized in the right carotid artery, and the compound was introduced over a ten-second period to a total dosage of 5 mg/kg. Within 30 seconds, the mean arterial pressure had fallen from about 100 mm Hg to about 70 mm Hg, with a marked reduction in pulse pressure from about 40 mm to about 10 mm. […] If cardiac output was basically unaffected, reduction in blood pressure would have resulted principally from a reduction in system resistance.
At that time, 40 μg of noradrenaline was introduced.

[14] = system: heart of a juvenile Xenopus laevis frog; experiment: ex vivo beating of isolated frog heart; conditions: 10 μg/ml; Krebs-Ringer with adrenaline 50 μg/ml; about one hour without compound
Protocol: To determine if compound 1436 has such utility, the following experiment was performed. The heart of a juvenile Xenopus laevis frog was dissected from the living animal. The heart was placed into a Petri dish containing Krebs-Ringer buffer with adrenaline 50 μg/ml, and examined with the naked eye. At room temperature, the heart continued beating in a coordinated fashion (atrial beat followed by ventricular beat) for about one hour. In the presence of 10 μg/ml of compound 1436, spontaneous beating persisted up to 24 hours.

rabbit NHE3 = rabbit NHE3 (Oryctolagus cuniculus, UniProt P26432); conditions: 10 μg/ml; acid preloaded by 40 mM NH4Cl
Sequence of rabbit NHE3 (P26432 30-832): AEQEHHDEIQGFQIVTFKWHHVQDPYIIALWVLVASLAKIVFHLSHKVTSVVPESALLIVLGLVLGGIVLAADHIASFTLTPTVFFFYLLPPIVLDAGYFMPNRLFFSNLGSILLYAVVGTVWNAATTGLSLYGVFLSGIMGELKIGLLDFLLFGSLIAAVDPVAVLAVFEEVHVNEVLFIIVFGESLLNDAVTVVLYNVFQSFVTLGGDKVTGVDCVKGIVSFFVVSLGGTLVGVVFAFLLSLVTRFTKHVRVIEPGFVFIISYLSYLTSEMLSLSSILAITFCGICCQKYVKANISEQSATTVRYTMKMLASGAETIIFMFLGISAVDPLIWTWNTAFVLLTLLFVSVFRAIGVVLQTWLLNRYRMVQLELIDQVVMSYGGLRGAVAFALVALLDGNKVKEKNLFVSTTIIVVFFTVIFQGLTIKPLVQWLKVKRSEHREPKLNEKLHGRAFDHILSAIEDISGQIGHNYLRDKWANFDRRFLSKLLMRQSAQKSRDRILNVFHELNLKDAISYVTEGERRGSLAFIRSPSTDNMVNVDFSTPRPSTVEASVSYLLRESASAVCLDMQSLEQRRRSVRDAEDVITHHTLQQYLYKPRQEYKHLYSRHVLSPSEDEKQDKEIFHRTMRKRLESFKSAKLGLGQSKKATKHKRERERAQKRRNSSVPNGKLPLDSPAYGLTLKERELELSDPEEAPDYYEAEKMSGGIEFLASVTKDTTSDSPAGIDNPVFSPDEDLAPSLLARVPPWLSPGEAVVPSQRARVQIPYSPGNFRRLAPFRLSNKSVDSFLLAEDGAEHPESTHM
Protocol: Internal pH was measured either following acid loading or in the absence of an acid-loading challenge, with the results shown in FIGS. 1A and 1B.
Specifically, PS120 fibroblasts transfected with rabbit NHE3 were grown in supplemented Dulbecco's-modified Eagle's medium as described by Levine et al., J. Biol. Chem. 268, 1993, 25527-25535. […] For cells not acid-preloaded, the actual internal pH value was monitored as a function of time following addition of squalamine, with the results depicted in FIG. 1B.
PS120 fibroblasts transfected with rabbit NHE3 were grown and acid preloaded by exposure to 40 mM NH4 Cl as described above in conjunction with FIGS. 1A and 1B. Internal cellular pH changes expressed as the rate of pH recovery as a function of restored extracellular sodium ion concentration following exposure to 10 μg/ml of the compound were assayed with the fluorescent dye BCECF-AM as described above.

CC(C)C(CO)(CC[C@@H](C)[C@H]1CC[C@H]2[C@@H]3[C@H](O)C[C@H]4C[C@@H](NCCCNCCCCN)CC[C@]4(C)[C@H]3CC[C@]12C)OS(=O)(=O)O (single isomer, unassigned) [Compound 1437]
inhibition at 10 µg/mL [1]: 10%
anticancer activity [2]: found to exhibit anticancer activity
hyperglycemia (fasting blood glucose): caused hyperglycemia in mice

CC(CCC(=O)O)[C@H]1CCC2C3C[C@@H](O)[C@H]4C[C@@H](NCCCNCCCCNCCCN)CC[C@]4(C)C3CC[C@@]21C (stereo partly shown)
MIC (P. aerug): 8 µg/mL (≈ 13.9 µM)

CC(C)CCC[C@@H](C)[C@H]1CC[C@H]2[C@@H]3CC[C@H]4C[C@@H](NCCCNCCCCNCCCN)CC[C@]4(C)[C@H]3CC[C@]12C [Compound 353]
vitelline capillary regression ([3]; 1 μg applied): +/-
effect on chick embryo vitelline capillaries (in words) ([3]; in vivo): no effect on the chick embryo capillary bed
apoptotic cell death (human melanoma): apoptotic cell death has been induced
effect on growth of melanoma (time course) (human melanoma; FIG. 17A): most pronounced over 48 hours, with less of an effect noted within the first 12 hours of incubation
tadpole response similar to compound 1436 ([4]; tadpole assay): produce effects like those produced by compound 1436

N.N.[Cl][Pt][Cl] [Cisplatin, cisplatin, reference compound]
anemia ([5]; by day 28): profound anemia

C[C@H](CCC(=O)O)[C@H]1CC[C@H]2[C@@H]3CC[C@H]4C[C@@H](NCCCNCCCCN)CC[C@]4(C)[C@H]3CC[C@]12C [Compound 319]
vitelline capillary regression ([3]; 0.001 μg applied): +/-
vitelline capillary regression ([3]; 0.01 μg applied): +
vitelline capillary regression ([3]; 0.1 μg applied): +
vitelline capillary regression ([3]; 1 μg applied): +
vitelline capillary regression ([3]; 10 μg applied): +
activity in vitelline capillary regression assay (in words) ([3]; in vivo): especially active
control of B16 melanoma (B16 melanoma; subcutaneous administration (FIG. 6)): control of B16 in C57B mice to an extent almost comparable to squalamine
pharmacokinetic clearance compared with squalamine (mouse IV PK study, HPLC): more rapid pharmacokinetic clearance than squalamine
tadpole tail capillary occlusion [4]: common vascular occlusive effect

N=C(N)NC(=O)c1nc(Cl)c(N)nc1N [Amiloride, amiloride]
inhibition of NHE1β (NHE1β): inhibited by high concentrations

COC(=O)CCC(C)[C@H]1CCC2C3C(CC[C@@]21C)[C@@]1(C)CC[C@H](NCCCNCCCCNCCCN)C[C@H]1C[C@H]3O (stereo partly shown)
MIC (P. aerug): 64 µg/mL (≈ 108 µM)

CC(C)CCC[C@@H](C)[C@H]1CC[C@H]2[C@@H]3CC[C@H]4C[C@H](NCCCCN)CC[C@]4(C)[C@H]3CC[C@]12C
MIC (P. aerug): > 256 µg/mL

CC(CCC(=O)O)[C@H]1CCC2C3C(CC[C@@]21C)[C@@]1(C)CC[C@@H](NCCCNCCCCNCCCN)C[C@H]1C[C@H]3O (stereo partly shown)
MIC (P. aerug): 8 µg/mL (≈ 13.9 µM)

CC(C)[C@@H](CC[C@@H](C)[C@H]1CC[C@H]2[C@@H]3[C@H](O)C[C@H]4C[C@@H](NCCCNCCCCNCCCN)CC[C@]4(C)[C@H]3CC[C@]12C)OS(=O)(=O)O [Compound 1436]
vitelline capillary regression ([3]; 0.001 μg applied): +/-
vitelline capillary regression ([3]; 0.01 μg applied): +
vitelline capillary regression ([3]; 0.1 μg applied): +
vitelline capillary regression ([3]; 1 μg applied): +
vitelline capillary regression ([3]; 10 μg applied): +
effect on chick embryo vitelline capillaries (in words) ([3]; in vivo): causes vitelline capillary regression with about the same potency as squalamine
impact on tumor volume (B16 melanoma; compound 1436 alone 10 mg/kg/every 3 days): no significant impact on tumor volume
tumor growth, single agent (B16 melanoma; squalamine 15 mg/kg/day, compound 1436 alone in a tolerable schedule): Neither administration of squalamine at 15 mg/kg/day nor compound 1436 alone in a tolerable schedule could achieve this effect
inhibition at 1 µg/mL ([1]; 1 μg/ml): 20%
inhibition at 5 µg/mL ([1]; 5 μg/ml): 50%
inhibition at 10 µg/mL [1]: 80%
cancer cells inhibited in vitro [6]: INHIBITED
cancer cells inhibited in vitro [7]: INHIBITED
non-transformed cells inhibited in vitro [8]: INHIBITED
cancer cells inhibited in vitro (Human melanoma WM 1617): INHIBITED
non-transformed cells inhibited in vitro [9]: INHIBITED
cancer cells inhibited in vitro (Murine L1210 leukemia): INHIBITED
non-transformed cells inhibited in vitro [10]: INHIBITED
non-transformed cells inhibited in vitro [11]: INHIBITED
cancer cells inhibited in vitro ([2]; 10 μg/ml): INHIBITED
cancer cells inhibited in vitro (Lewis lung carcinoma): INHIBITED
cancer cells inhibited in vitro (Murine B16 melanoma): INHIBITED
survival ([5]; highest dose (10 mg/kg every 3 days i.p.)): significant prolongation of life
granulocyte count ([5]; mouse, in vivo): robust granulocyte count
hematocrit ([5]; mouse, in vivo): near normal hematocrit
hyperglycemia (fasting blood glucose): caused hyperglycemia in mice
suppression of growth (in words) ([12]; FIG. 15): suppress in vitro the growth of human coronary artery smooth muscle
viability ([12]; about 11 μg/ml): without loss of viability
reduction in growth of mice ([13]; 1 mg/kg QTD i.p.): about 10%
suppression of growth of mice ([13]; 10 mg/kg QTD i.p., about 1 month): growth was almost completely inhibited
health of treated animals ([13]; mouse, in vivo): all were active, normally proportioned, not-cachectic, and in excellent apparent clinical health
reversibility of effect (arterial pressure; 40 μg noradrenaline at 30 minutes): readily reversible
duration of effect on arterial pressure (arterial pressure; 5 mg/kg i.v.): followed for 30 minutes, without significant change
heart rate (arterial pressure; 5 mg/kg i.v.): no significant increase in heart rate was observed
time to fall in arterial pressure (arterial pressure; 5 mg/kg i.v.): ≤ 30 s
pulse pressure after dosing (arterial pressure; 5 mg/kg i.v., from about 40 mm): about 10 mm
mean arterial pressure after dosing (arterial pressure; 5 mg/kg i.v., from about 100 mm Hg): about 70 mm Hg
persistence of spontaneous beating of isolated heart [14]: up to 24 hours
time to death of tadpole ([4]; in vivo): about 2 hours
tadpole tail capillary occlusion [4]: common vascular occlusive effect
inhibition of rabbit NHE3 (rabbit NHE3): found to inhibit rabbit NHE3
